Measured values from patent publication US10947252B2, “Inhibitors of KEAP1-Nrf2 protein-protein interaction” (Janssen Pharmaceutica NV, priority 2018, dated 2021).

How the values were obtained:
[1] = system: Glo-Response ARE-luc2P HEK293 cell line; assay: ARE luciferase reporter cell-based assay; conditions: Homo sapiens, HEK293, 24 h, average of results obtained;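 note: luciferase signal tracks Nrf2 activation of the ARE once compounds disrupt KEAP1-Nrf2 binding, read with One-Glo reagent, DMSO serving as low control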
[2] = target: Kelch domain of human KEAP1 (321-624 aa) (Homo sapiens (Human), UniProt Q14145); assay: KEAP1 KELCH ThermoFluor binding assay; conditions: KEAP Kelch […], 1,8-ANS, pH 7.0, average of results obtained, read-out: Tf Kd;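 note: Ligand-induced melting temperature shift of E. coli-expressed KEAP1 Kelch protein, Kd estimated from concentration-response curves of ΔTm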
Chain of Kelch domain of human KEAP1 (321-624 aa) (Q14145 321-624): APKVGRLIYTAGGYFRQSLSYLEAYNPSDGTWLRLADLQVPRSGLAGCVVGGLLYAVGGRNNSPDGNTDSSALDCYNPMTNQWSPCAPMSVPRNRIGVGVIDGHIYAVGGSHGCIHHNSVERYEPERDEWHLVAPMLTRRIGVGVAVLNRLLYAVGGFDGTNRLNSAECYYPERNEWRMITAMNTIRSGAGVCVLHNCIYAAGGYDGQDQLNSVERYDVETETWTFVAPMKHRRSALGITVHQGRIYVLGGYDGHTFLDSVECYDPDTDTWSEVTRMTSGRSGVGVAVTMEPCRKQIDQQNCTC

Row | Kd [2] [nM] | SMILES | EC50 [1] [nM]
1 | < 1 | Cc1ccc([C@H](c2ccn3c(C(F)(F)F)nnc3c2C)C(C)(C)C(=O)O)cc1CN1C[C@@H]2CCCCN2c2ncc(C#N)cc2S1(=O)=O (single isomer, unassigned) [Example 425, (*R)-3-(3-(((*S)-3-cyano-5,5-dioxido-7,7a,8,9,10,11-hexahydro-6H-dipyrido[2,1-d:2′,3′-f][1,2,5]thiadiazepin-6-yl)methyl)-4-methylphenyl)-2,2-dimethyl-3-(8-methyl-3-(trifluoromethyl)-[1,2,4]triazolo[4,3-a]pyridin-7-yl)propanoic Acid] | 96.9
2 | < 1 | Cc1ccc([C@@H](c2ccc3c(nnn3CC3CC3)c2C)C(C)(C)C(=O)O)cc1CN1CC2(CCOCC2)Oc2ncccc2S1(=O)=O (single isomer, unassigned) [Example 428, (S*)-3-(1-(cyclopropylmethyl)-4-methyl-1H-benzo[d][1,2,3]triazol-5-yl)-3-(3-((1′,1′-dioxido-2,3,5,6-tetrahydrospiro[pyran-4,4′-pyrido[2,3-b][1,4,5]oxathiazepin]-2′(3′H)-yl)methyl)-4-methylphenyl)-2,2-dimethylpropanoic Acid] | 399
3 | 7830 | Cc1ccc([C@@H](c2ccn3c(C(F)(F)F)nnc3c2C)C(C)(C)C(=O)O)cc1CN1CC(C)(C)Oc2ncccc2S1(=O)=O (single isomer, unassigned) [Example 430, (*S)-3-(3-((4,4-dimethyl-1,1-dioxido-3,4-dihydro-2H-pyrido[2,3-b][1,4,5]oxathiazepin-2-yl)methyl)-4-methylphenyl)-2,2-dimethyl-3-(8-methyl-3-(trifluoromethyl)-[1,2,4]triazolo[4,3-a]pyridin-7-yl)propanoic Acid] | 647
4 | < 1 | Cc1ccc([C@H](c2ccn3c(C(F)(F)F)nnc3c2C)C(C)(C)C(=O)O)cc1CN1CC(C)(C)Oc2ncccc2S1(=O)=O (single isomer, unassigned) [Example 431, (*R)-3-(3-((4,4-dimethyl-1,1-dioxido-3,4-dihydro-2H-pyrido[2,3-b][1,4,5]oxathiazepin-2-yl)methyl)-4-methylphenyl)-2,2-dimethyl-3-(8-methyl-3-(trifluoromethyl)-[1,2,4]triazolo[4,3-a]pyridin-7-yl)propanoic Acid] | 2.84
5 | < 1 | Cc1ccc([C@H](CC(=O)O)c2ccn3c(C(F)(F)F)nnc3c2C)cc1CN1CC2(CCOCC2)Oc2ncccc2S1(=O)=O (single isomer, unassigned) [Example 432, (*S)-3-(3-((1′,1′-dioxido-2,3,5,6-tetrahydrospiro[pyran-4,4′-pyrido[2,3-b][1,4,5]oxathiazepin]-2′(3′H)-yl)methyl)-4-methylphenyl)-3-(8-methyl-3-(trifluoromethyl)-[1,2,4]triazolo[4,3-a]pyridin-7-yl)propanoic Acid] | 103
6 | 119 | Cc1cc2cc([C@@H](CC(=O)O)c3ccc(C)c(CN4C[C@H]5CCCN5c5ncccc5S4(=O)=O)c3)n(C)c2nn1 (single isomer, unassigned) [Example 435, (*S)-3-(3,7-Dimethyl-7H-pyrrolo[2,3-c]pyridazin-6-yl)-3-(3-(((R)-5,5-dioxido-7a,8,9,10-tetrahydropyrido[2,3-f]pyrrolo[2,1-d][1,2,5]thiadiazepin-6(7H)-yl)methyl)-4-methylphenyl)propanoic Acid] | > 20000
7 | < 1 | Cc1cc2cc([C@H](CC(=O)O)c3ccc(C)c(CN4C[C@H]5CCCN5c5ncccc5S4(=O)=O)c3)n(C)c2nn1 (single isomer, unassigned) [Example 436, (*R)-3-(3,7-Dimethyl-7H-pyrrolo[2,3-c]pyridazin-6-yl)-3-(3-(((R)-5,5-dioxido-7a,8,9,10-tetrahydropyrido[2,3-f]pyrrolo[2,1-d][1,2,5]thiadiazepin-6(7H)-yl)methyl)-4-methylphenyl)propanoic Acid] | 2230
8 | 234 | Cc1cc2cc([C@@H](CC(=O)O)c3ccc(C)c(CN4C[C@@H]5CCCN5c5ncccc5S4(=O)=O)c3)n(C)c2nn1 (single isomer, unassigned) [Example 438, (*S)-3-(3,7-Dimethyl-7H-pyrrolo[2,3-c]pyridazin-6-yl)-3-(3-(((S)-5,5-dioxido-7a,8,9,10-tetrahydropyrido[2,3-f]pyrrolo[2,1-d][1,2,5]thiadiazepin-6(7H)-yl)methyl)-4-methylphenyl)propanoic Acid] | > 20000
9 | 1.26 | Cc1cc2cc([C@H](CC(=O)O)c3ccc(C)c(CN4C[C@@H]5CCCN5c5ncccc5S4(=O)=O)c3)n(C)c2nn1 (single isomer, unassigned) [Example 439, (*R)-3-(3,7-Dimethyl-7H-pyrrolo[2,3-c]pyridazin-6-yl)-3-(3-(((S)-5,5-dioxido-7a,8,9,10-tetrahydropyrido[2,3-f]pyrrolo[2,1-d][1,2,5]thiadiazepin-6(7H)-yl)methyl)-4-methylphenyl)propanoic Acid] | 2440
10 | 60.3 | Cc1cc2cc([C@@H](CC(=O)O)c3ccc(C)c(CN4C[C@@H]5CCCCN5c5ncccc5S4(=O)=O)c3)n(C)c2nn1 (single isomer, unassigned) [Example 441, (*S)-3-(3,7-Dimethyl-7H-pyrrolo[2,3-c]pyridazin-6-yl)-3-(3-(((*S)-5,5-dioxido-7,7a,8,9,10,11-hexahydro-6H-dipyrido[2,1-d:2′,3′-f][1,2,5]thiadiazepin-6-yl)methyl)-4-methylphenyl)propanoic Acid] | > 20000
11 | < 1 | Cc1cc2cc([C@H](CC(=O)O)c3ccc(C)c(CN4C[C@@H]5CCCCN5c5ncccc5S4(=O)=O)c3)n(C)c2nn1 (single isomer, unassigned) [Example 442, (*R)-3-(3,7-Dimethyl-7H-pyrrolo[2,3-c]pyridazin-6-yl)-3-(3-(((*S)-5,5-dioxido-7,7a,8,9,10,11-hexahydro-6H-dipyrido[2,1-d:2′,3′-f][1,2,5]thiadiazepin-6-yl)methyl)-4-methylphenyl)propanoic Acid] | 553
12 | 21.3 | Cc1cc2cc([C@@H](CC(=O)O)c3ccc(C)c(CN4C[C@H]5CCCCN5c5ncccc5S4(=O)=O)c3)n(C)c2nn1 (single isomer, unassigned) [Example 444, (*S)-3-(3,7-Dimethyl-7H-pyrrolo[2,3-c]pyridazin-6-yl)-3-(3-(((*R)-5,5-dioxido-7,7a,8,9,10,11-hexahydro-6H-dipyrido[2,1-d:2′,3′-f][1,2,5]thiadiazepin-6-yl)methyl)-4-methylphenyl)propanoic Acid] | > 20000
13 | < 1 | Cc1cc2cc([C@H](CC(=O)O)c3ccc(C)c(CN4C[C@H]5CCCCN5c5ncccc5S4(=O)=O)c3)n(C)c2nn1 (single isomer, unassigned) [Example 445, (*R)-3-(3,7-Dimethyl-7H-pyrrolo[2,3-c]pyridazin-6-yl)-3-(3-(((*R)-5,5-dioxido-7,7a,8,9,10,11-hexahydro-6H-dipyrido[2,1-d:2′,3′-f][1,2,5]thiadiazepin-6-yl)methyl)-4-methylphenyl)propanoic Acid] | 716
